Test results: patent publication US20230322815A1, “NOVEL COMPOUNDS AND THERAPEUTIC USES THEREOF” (University of Huddersfield, priority 2020, published 2023)
Entries after “also recorded” stand apart in the source; their conditions may differ.

Experiments:
[1] = tested on: recombinant AMPK (AMPKα p-T172); test: Western blot of purified recombinant kinase after exposure to complex; type: biochemical, human; settings: 50 μM complex, 4 hours, in the presence of ATP
Protocol: FIG. 10. Western blot analysis of purified recombinant Src and AMPK following exposure to [L2Zn3]^6+ and [L2Cu3]^6+. Purified enzymes were incubated with complexes (50 μM) for 4 hours in the presence of ATP prior to analysis.
Protein lysates and recombinant proteins were resolved on 15% SDS polyacrylamide gels. Proteins were electroblotted onto nitrocellulose membrane by wet transfer in 1×Tris Glycine buffer (Biorad) at 35 mA overnight at room temperature (Allison et al., 2014). After blocking of membranes, these were incubated with primary antibody overnight at 4° C. before addition of rabbit or mouse secondary antibody (HRP-conjugated) for 1 h at room temperature and development of blots by enhanced chemiluminescence. […] Quantification of signals was performed by densitometry using Image J software.
To investigate these hypotheses further, regulatory phospho-amino acids of two key kinases identified by the kinase screen, AMPK and Src, were analysed following incubation of the recombinant kinases with Zn^2+ or Cu^2+ complexes.

HCT116 tumors = test: Chick embryo chorioallantoic membrane (CAM) assay, in ovo efficacy; type: in vivo, human tumor cells on chick embryo CAM; settings: for doses giving statistically significant regression of tumor growth (mean tumor weight at E18): L2Zn3 70.5, 141, 282 μM, L2Cu3 75, 150, 300 μM
Protocol: FIG. 24. Activity of [L2Cu3]^6+ and [L2Zn3]^6+ against primary HCT116 tumors. The results presented represent the mean tumour weight ±SEM following treatment at 3 different doses of [L2Cu3]^6+ and [L2Zn3]^6+: L2Zn3 [1]=70.5 μM, L2Zn3 [2]=141 μM, L2Zn3 [3]=282 μM; L2Cu3 [1]=75 μM, L2Cu3[2]=150 μM, L2Cu3[3]=300 μM. SoC doxorubicin. Statistical analysis by one way ANOVA (*): 0.05≥p value >0.01; (**): 0.01≥p value >0.001; (***): 0.001≥p value; (****): 0.0001≥p value. Number per experimental group n=12-15.
FIG. 25. Evaluation of the effects of [L2Cu3]^6+ and [L2Zn3]^6+ on primary HCT116 metastasis to the lower CAM. Relative ALU expression (relative to chicken GAPDH) as a quantitive marker of metastasis of human cells to the lower CAM. Relative expression ±SEM. L2Zn3 [1]=70.5 μM, L2Zn3 [2]=141 μM, L2Zn3 [3]=282 μM; L2Cu3 [1]=75 μM, L2Cu3[2]=150 μM, L2Cu3[3]=300 μM. SoC doxorubicin. Number per experimental group n=7-8.
[L2Cu3]^6+ and [L2Zn3]^6+ were evaluated at three different doses for in ovo anti-cancer activity, toxicity and anti-metastatic activity against tumors initiated from three different human cancer cell line models (H460, HT29, HCT116), in the chick embryo chorioallantoic membrane (CAM) assay.
Each compound was provided to the contract research organisation (CRO) Inovotion (La Tronche, France) conducting the in ovo study, as a powder pre-weighed in single vials (2 equivalents of ligand, 3 equivalents of metal; and stored at room temperature). Before use, this was then dissolved in DMSO to 50 mM to generate a stock solution and further freshly diluted in RPM11640 or McCoys aqueous cell culture media for administration.
A standard of care (SoC) drug for the particular tumour type was tested concurrently as a comparative control for in vivo efficacy and toxicity evaluation. […]
On day E18, a 1 cm^2 portion of the lower CAM was collected (n=8 per group), stored at −20° C. and later processed to extract DNA. Samples were analysed for human genomic DNA (qPCR for Alu sequences) as a quantitative marker of tumor metastasis to the lower CAM.

SMILES	AMPKα p-T172 levels by immunoblotting [1]	doses giving statistically significant regression of tumor growth (mean tumor weight at E18) (HCT116 tumors)	HCT116 metastatic load in the lower CAM (qPCR for Alu sequences) (HCT116 tumors; all three doses, comparable to SoC doxorubicin)
[Cu+2].[Cu+2].[Cu+2].c1ccc(-c2csc(NCCN(CCNc3nc(-c4ccccn4)cs3)CCNc3nc(-c4ccccn4)cs3)n2)nc1.c1ccc(-c2csc(NCCN(CCNc3nc(-c4ccccn4)cs3)CCNc3nc(-c4ccccn4)cs3)n2)nc1 [[L2Cu3]^6+]	significantly reduced p-T172 levels	all three tested doses	
[Zn+2].[Zn+2].[Zn+2].c1ccc(-c2csc(NCCN(CCNc3nc(-c4ccccn4)cs3)CCNc3nc(-c4ccccn4)cs3)n2)nc1.c1ccc(-c2csc(NCCN(CCNc3nc(-c4ccccn4)cs3)CCNc3nc(-c4ccccn4)cs3)n2)nc1 [[L2Zn3]^6+]	significantly reduced p-T172 levels	the highest two doses tested	Decreases in HCT116 metastatic load; also recorded: strong regression tendency
